Measured values taken from patent US12018307B2, “Process for producing a glucuronide and genetically modified microorganisms useful in this process” (UTAH STATE UNIVERSITY, priority 2021, dated 2024).
Converted amounts (≈) assume the structure as drawn. Like-named read-outs stand apart in the source and are kept apart here.

How the values were obtained:
[1] = test system: human peripheral blood mononuclear cells; conditions: cited from earlier work
[2] = Determination of the water-solubility; type: physicochemical
Experimental: The purified product was tested for their water solubility as previously described (Wang et al. 2014). Purified 2′-hydroxyflavone glycoside was used to establish standard curves for quantifying water solubility. Briefly, the purified compound and the substrate were each mixed with 300 μL of distilled water in an Eppendorf tube at 25° C. An ultrasonic cleaner was used to facilitate the dissolution. After 30 min of sonication and centrifugation at 13,000×g for 10 min, supernatant of each sample was analyzed by HPLC to determine the compound concentrations in the solution. All samples were performed in triplicate and water solubility of each sample are expressed as the mean±standard deviation (SD).

For `Oc1ccc(C=Cc2cc(O)cc(O)c2)cc1` [resveratrol, reference compound], the “cytotoxicity to human peripheral blood mononuclear cells” value ([1]; at 30 μM) is given as “has cytotoxicity”.
For `O=C(O)[C@H]1O[C@@H](Oc2ccccc2-c2cc(=O)c3ccccc3o2)[C@H](O)[C@@H](O)[C@@H]1O` [hydroxyflavone-2′-O-β-D-glucuronide], the water solubility ([2]; distilled water, 25° C., 30 min sonication, HPLC, n=3, mean±SD) was 34.8 ± 0.9 µg/mL (≈ 84 µM) and the “water solubility relative to the substrate 2′-hydroxyflavone” value ([2]; ratio glucuronide / substrate) was “around 14 times”.
For `O=C(O)[C@H]1O[C@@H](Oc2ccc(/C=C/c3cc(O)cc(O)c3)cc2)[C@H](O)[C@@H](O)[C@@H]1O` [resveratrol-4′-O-β-D-glucuronide, Resveratrol-4′-O-β-D-glucuronide], the “cytotoxicity to human peripheral blood mononuclear cells” value ([1]; at 300 μM) is listed as “did not show any cytotoxicity”.
Compound `O=c1cc(-c2ccccc2O)oc2ccccc12` [2′-hydroxyflavone, reference compound] has a solubility at 30 min ([2]; thermodynamic from solid, distilled water, 25° C., 30 min sonication, HPLC, n=3, mean±SD) of 2.5 ± 0.7 µg/mL (≈ 10.5 µM).
